Target: T1, Androgen Receptor (AR) in the LNCaP prostate carcinoma cell line (Homo sapiens, UniProt P10275, T878A)
T1 construct: cell based immuno-fluorescence assay using the LNCaP prostate epithelial cell line; host or cells: LNCaP clone FGC
T1 sequence (P10275 1-920 T878A): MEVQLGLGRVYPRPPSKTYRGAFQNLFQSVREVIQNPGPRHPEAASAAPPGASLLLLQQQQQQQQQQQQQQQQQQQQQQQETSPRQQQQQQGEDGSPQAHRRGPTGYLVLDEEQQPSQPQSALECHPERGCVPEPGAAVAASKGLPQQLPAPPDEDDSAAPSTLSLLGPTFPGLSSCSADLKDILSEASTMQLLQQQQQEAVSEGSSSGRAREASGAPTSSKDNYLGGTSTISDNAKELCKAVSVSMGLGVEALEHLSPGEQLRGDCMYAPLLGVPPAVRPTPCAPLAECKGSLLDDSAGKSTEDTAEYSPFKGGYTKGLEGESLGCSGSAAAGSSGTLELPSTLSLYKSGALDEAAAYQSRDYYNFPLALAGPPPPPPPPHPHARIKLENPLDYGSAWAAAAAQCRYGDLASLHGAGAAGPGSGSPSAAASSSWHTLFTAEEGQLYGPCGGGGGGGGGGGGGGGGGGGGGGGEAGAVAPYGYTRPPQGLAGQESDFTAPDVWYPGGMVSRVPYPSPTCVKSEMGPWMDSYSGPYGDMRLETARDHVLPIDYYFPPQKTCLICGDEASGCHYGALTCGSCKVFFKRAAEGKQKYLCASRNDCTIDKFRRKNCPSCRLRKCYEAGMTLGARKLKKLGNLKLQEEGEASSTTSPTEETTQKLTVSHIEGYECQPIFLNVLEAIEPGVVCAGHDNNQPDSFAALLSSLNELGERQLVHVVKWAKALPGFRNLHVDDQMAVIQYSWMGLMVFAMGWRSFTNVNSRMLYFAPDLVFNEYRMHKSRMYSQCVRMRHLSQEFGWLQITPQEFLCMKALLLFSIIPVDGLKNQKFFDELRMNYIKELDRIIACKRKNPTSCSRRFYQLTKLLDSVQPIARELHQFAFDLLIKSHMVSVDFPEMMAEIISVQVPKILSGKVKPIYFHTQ
Assay: LNCaP Androgen Receptor Down-Regulation Cell Assay (immunofluorescence end point)
Assay type: cell-based
Conditions: LNCaP cells, compound incubation 20-22 hours, concentration giving 50% reduction of the AR signal
Protocol: The ability of compounds to reduce Androgen Receptor (AR) numbers was assessed in a cell based immuno-fluorescence assay using the LNCaP prostate epithelial cell line.
This immunofluorescence end point assay measures the ability of a test compound to down-regulate and reduce measured levels of the AR in the LNCaP prostate carcinoma cell line (LNCaP clone FGC (CRL-1740) obtained from the American Type Culture Collection (ATCC)).
LNCaP cells were cultured in Growth Medium (phenol red free Roswell Park Memorial Institute (RPMI) 1640 (Invitrogen Code no. 11835-063) containing 2 mM L-Glutamine (Invitrogen Code no. 25030-024) and 1% (v/v) Penicillin/Streptomycin (10000 units/ml Penicillin and 10000 μg/ml of Streptomycin utilising penicillin G (sodium salt) and streptomycin sulphate: prepared in normal saline, Invitrogen Code no. 15140122) and 10% (v/v) foetal bovine serum (FBS)) in a 5% CO2 air incubator at 37° C. Cells for assay were harvested from T175 stock flasks by washing once in PBS (phosphate buffered saline, pH 7.4) (Invitrogen Code no. 14190-094) and harvested using 5 mls of 1× Trypsin/ethylaminediaminetetraacetic acid (EDTA) (10× Trypsin-EDTA, 5.0 g/L Trypsin, 2.0 g/L of EDTA.4Na and 8.5 g/L of NaCl, without Phenol Red, Invitrogen Code no. 15400-054) diluted in PBS solution. A 5 ml volume of Growth Medium was added to each flask (as above except that 5% (v/v) charcoal stripped FBS (HyClone Code no. SH30068.03) was included instead of 10% (v/v) FBS). Cells were syringed at least twice using a sterile 18 G×1.5″ (1.2×40 mm) broad gauge needle and cell density was measured using a haemocytometer. Cells were further diluted in Growth Medium plus 5% (v/v) charcoal stripped FBS and seeded at a density of 6.5×10^3 cells per well (in 90 ul) into transparent, black, tissue culture treated 96 well plates (Packard, No. 6005182).
Test data reported herein was generated using two different compounds preparation and dosing methods. In method (1) a 10 mM compound stock solution in 100% (v/v) DMSO was serially diluted in 4-fold steps in 100% (v/v) DMSO using a Thermo Scientific Matrix SerialMate. The diluted compounds were then further diluted 1 in 30 in assay media using a Thermo Scientific Matrix PlateMate and a 10 μl aliquot of this dilution was dosed to cells manually using a multi-channel pipette. In method (2) starting with a 10 mM compound stock solution, the Labcyte Echo 550 was used to generate a compound concentration response set diluted in 30 μl of assay media. The Echo 550 is a liquid handler that uses acoustic technology to perform direct microplate-to-microplate transfers of DMSO compound solutions. The system can be programmed to transfer volumes as low as 2.5 nL in multiple increments between microplates and in so doing generates a serial dilution of compound which is then back-filled to normalise the DMSO concentration across the dilution range. A 10 μl volume of diluted compound is then dosed to cells using a Thermo Scientific Matrix PlateMate.
Plates were incubated overnight at 37° C., 5% CO2. Wells were then dosed with compound prepared by one of the 2 methods above and further incubated for 20-22 hours at 37° C., 5% CO2. Plates were fixed by the addition of 20 μl of 10% (v/v) formaldehyde solution (in PBS) to each well (final formaldehyde conc.=1.67% (v/v)) and left at room temperature for 10 mins. This fixative solution was removed and cells were washed with 250 μl of PBS/0.05% (v/v) Tween 20 (PBST) using an automated plate washer. This process was then repeated twice more.
Immunostaining was performed at room temperature. Cells were permeabilised by the addition of 35 μl of PBS containing 0.5% Tween 20 and incubated for 1 hour at room temperature. Permeabilisation solution was removed and cells were washed with 250 μl of PBST using an automated plate washer. This process was then repeated twice more. […]

Molecule CCCCC(=O)N1CCN(CCOc2ccc(N3CCN(C4=Nn5c(nnc5C(F)(F)F)CC4)CC3)cc2)CC1 [Example 33, 6-(4-{4-[2-(4-pentanoylpiperazin-1-yl)ethoxy]phenyl}piperazin-1-yl)-3-(trifluoromethyl)-7,8-dihydro[1,2,4]triazolo[4,3-b]pyridazine] has an IC50 of 7.8 µM.
Fc1ccc(CN2CCN(C3=Nn4c(nnc4C(F)(F)F)CC3)CC2)cc1 [Example 1, 6-[4-(4-fluorobenzyl)piperazin-1-yl]-3-(trifluoromethyl)-7,8-dihydro[1,2,4]triazolo[4,3-b]pyridazine] was tested, and the IC50 was 6 µM.
For Fc1ccc2[nH]cc(CN3CCN(C4=Nn5c(nnc5C(F)(F)F)CC4)CC3)c2c1 [Example 12, 6-{4-[(5-fluoro-1H-indol-3-yl)methyl]piperazin-1-yl}-3-(trifluoromethyl)-7,8-dihydro[1,2,4]triazolo[4,3-b]pyridazine], the IC50 was 3.4 µM.
CS(=O)(=O)N1CCN(CCOc2ccc(C3CCN(C4=Nn5c(nnc5C(F)(F)F)CC4)CC3)cc2)CC1 [Example 26, 6-[4-(4-{2-[4-(methylsulfonyl)piperazin-1-yl]ethoxy}phenyl)piperidin-1-yl]-3-(trifluoromethyl)-7,8-dihydro[1,2,4]triazolo[4,3-b]pyridazine] showed an IC50 of 1.5 µM.
CC(=O)N1CCN([C@@H](C)COc2ccc(C3CCN(C4=Nn5c(nnc5C(F)(F)F)CC4)CC3)cc2)CC1 (single isomer, unassigned) [Example 54] showed an IC50 of 0.14 µM.
With OC1(c2ccc(F)cc2)CCN(C2=Nn3c(nnc3C(F)(F)F)CC2)CC1 [Example 14, 4-(4-fluorophenyl)-1-[3-(trifluoromethyl)-7,8-dihydro[1,2,4]triazolo[4,3-b]pyridazin-6-yl]piperidin-4-ol] the IC50 was > 15 µM.
Work on C[C@@H]1C(=O)N(C)CCN1CCOc1ccc(C2CCN(C3=Nn4c(nnc4C(F)(F)F)CC3)CC2)cc1 [Example 49, (3R)-1,3-dimethyl-4-[2-(4-{1-[3-(trifluoromethyl)-7,8-dihydro[1,2,4]triazolo[4,3-b]pyridazin-6-yl]piperidin-4-yl}phenoxy)ethyl]piperazin-2-one] yielded an IC50 of 0.045 µM.
Fc1cccc(CN2CCN(C3=Nn4c(nnc4C(F)(F)F)CC3)CC2)c1F [Example 9, 6-[4-(2,3-difluorobenzyl)piperazin-1-yl]-3-(trifluoromethyl)-7,8-dihydro[1,2,4]triazolo[4,3-b]pyridazine] gave an IC50 of 4.1 µM.
With CCc1nccn1CCOc1ccc(N2CCN(C3=Nn4c(nnc4C(F)(F)F)CC3)CC2)cc1 [Example 39, 6-(4-{4-[2-(2-ethyl-1H-imidazol-1-yl)ethoxy]phenyl}piperazin-1-yl)-3-(trifluoromethyl)-7,8-dihydro[1,2,4]triazolo[4,3-b]pyridazine] the IC50 was 4.8 µM.
For FC(F)(F)c1ccn(CCOc2ccc(C3CCN(C4=Nn5c(nnc5C(F)(F)F)CC4)CC3)cc2)n1 [Example 44, 3-(trifluoromethyl)-6-[4-(4-{2-[3-(trifluoromethyl)-1H-pyrazol-1-yl]ethoxy}phenyl)piperidin-1-yl]-7,8-dihydro[1,2,4]triazolo[4,3-b]pyridazine], the IC50 was 0.55 µM.
For Cn1nccc1CCOc1ccc(N2CCN(C3=Nn4c(nnc4C(F)(F)F)CC3)CC2)cc1 [Example 16, 6-[4-[4-[2-(1-methyl-1H-pyrazol-5-yl)ethoxy]phenyl]piperazin-1-yl]-3-(trifluoromethyl)-7,8-dihydro[1,2,4]triazolo[4,3-b]pyridazine], the IC50 was 3.2 µM.
With CC(=O)N1CCN(CCOc2ccc(C3(O)CCN(C4=Nn5c(nnc5C(F)(F)F)CC4)CC3)cc2)CC1 [Example 45, 4-{4-[2-(4-acetylpiperazin-1-yl)ethoxy]phenyl}-1-[3-(trifluoromethyl)-7,8-dihydro[1,2,4]triazolo[4,3-b]pyridazin-6-yl]piperidin-4-ol] the IC50 was 12 µM.
Fc1cccc(CN2CCN(C3=Nn4c(nnc4C(F)(F)F)CC3)CC2)c1 [Example 6, 6-[4-(3-fluorobenzyl)piperazin-1-yl]-3-(trifluoromethyl)-7,8-dihydro[1,2,4]triazolo[4,3-b]pyridazine] showed an IC50 of 4 µM.

— patent US8258140B2 (Astrazeneca AB, priority 2009, dated 2012)
